Publication PMC10817917, “Alkyl deoxyglycoside-polymyxin combinations against critical priority carbapenem-resistant gram-negative bacteria” (Scientific Reports, 2024)
Where two headings read alike, the source gives them in different places.

How the values were obtained:
P. aeruginosa CQ4924 = experiment: Broth microdilution MIC, glycosides with or without polymyxins; format: cell-based, Pseudomonas aeruginosa; details: for MIC: Pseudomonas aeruginosa, CQ4924
K. pneumoniae CQ1947 = experiment: as above; format: cell-based, Klebsiella pneumoniae; details: for MIC: Klebsiella pneumoniae, CQ1947
K. pneumoniae CQ4921 = experiment: Broth microdilution MIC/MBC, glycosides with or without polymyxins; format: cell-based, Klebsiella pneumoniae; details: for MIC: Klebsiella pneumoniae, CQ4921
HEK-293T cells = experiment: Resazurin cell viability assay (cytotoxicity); format: cell-based, human; details: 72 h, read-out: IC50
How it was run: (§1)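 HEK-293T and Caco-2 cells (1.5 × 10^4/well, RPMI 1640 with 10% FBS) exposed 72 h at 37 °C to glycosides at final 100 to 10 µM, alone or with PMB or colistin at final 0.5, 0.25 or 0.125 µg/mL; max DMSO 0.33%. Resazurin added 4 h, read 570/600 nm; IC50 from dose-response fits, mean ± SD of three replicates.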

Caco-2 cells = experiment: Resazurin cell viability assay (cytotoxicity); format: cell-based, human; details: read-out: IC50
How it was run: as §1

E. cloacae CQ1941 = experiment: Broth microdilution MIC/MBC, glycosides with or without polymyxins; format: cell-based; details: for MIC: Enterobacter cloacae, CQ1941
[1] = alone, read-out: MICA (MIC of each compound individually)
[2] = combination with the lowest FICI
[3] = compound + colistin, lowest FICI

CCCCCCCCCCCCO[C@H]1O[C@H](C)C[C@H](O)[C@H]1O [Compound 1, dodecyl 4,6-dideoxy-α/β-D-xylo-hexopyranoside]
MIC of colistin in combination with the compound (P. aeruginosa CQ4924; Cpd conc. 0.4 μg/mL, strain H): > 0.5 µg/mL
MIC of colistin in combination with the compound (P. aeruginosa CQ4924; Cpd conc. 0.8 μg/mL, strain H): > 0.5 µg/mL
MIC of colistin in combination with the compound (P. aeruginosa CQ4924; Cpd conc. 3.125 μg/mL, strain H): > 0.5 µg/mL
MIC of colistin in combination with the compound (P. aeruginosa CQ4924; Cpd conc. 6.25 μg/mL, strain H): > 0.5 µg/mL
MIC of colistin in combination with the compound (P. aeruginosa CQ4924; Cpd conc. 12.5 μg/mL, strain H): > 0.5 µg/mL
MIC of colistin in combination with the compound (P. aeruginosa CQ4924; Cpd conc. […], strain H): > 0.5 µg/mL
MIC of compound in combination with PMB (P. aeruginosa CQ4924; PMB 0.25 μg/mL, strain H): > 100 µg/mL
MIC of compound in combination with PMB (P. aeruginosa CQ4924; PMB 0.5 μg/mL, strain H): > 100 µg/mL
MIC (P. aeruginosa CQ4924; agent alone, no adjuvant (polymyxin conc. 0), strain H, read-out: MIC): > 100 µg/mL
MIC (P. aeruginosa CQ4924; [1]): > 100 µg/mL
MIC of compound in combination with colistin (P. aeruginosa CQ4924; colistin 0.06 μg/mL, strain H): > 100 µg/mL
MIC of compound in combination with colistin (P. aeruginosa CQ4924; colistin 0.125 μg/mL, strain H): > 100 µg/mL
MIC of compound in combination with colistin (P. aeruginosa CQ4924; colistin 0.25 μg/mL, strain H): > 100 µg/mL
MIC of colistin in combination with the compound (K. pneumoniae CQ1947; Cpd conc. 0.4 μg/mL, strain F): > 0.5 µg/mL
MIC of colistin in combination with the compound (K. pneumoniae CQ1947; Cpd conc. 0.8 μg/mL, strain F): > 0.5 µg/mL
MIC of colistin in combination with the compound (K. pneumoniae CQ1947; Cpd conc. 3.125 μg/mL, strain F): 0.5 µg/mL
MIC of colistin in combination with the compound (K. pneumoniae CQ1947; Cpd conc. 6.25 μg/mL, strain F): 0.5 µg/mL
MIC of colistin in combination with the compound (K. pneumoniae CQ1947; Cpd conc. 12.5 μg/mL, strain F): 0.5 µg/mL
MIC of colistin in combination with the compound (K. pneumoniae CQ1947; Cpd conc. […], strain F): > 0.5 µg/mL
MIC (K. pneumoniae CQ1947; agent alone, no adjuvant (polymyxin conc. 0), strain F, read-out: MIC): > 100 µg/mL
MIC (K. pneumoniae CQ1947; [1]): > 100 µg/mL
MIC of compound in combination with PMB (K. pneumoniae CQ1947; PMB 0.25 μg/mL, strain F): > 100 µg/mL
MIC of compound in combination with PMB (K. pneumoniae CQ1947; PMB 0.5 μg/mL, strain F): 3.1 µg/mL
MIC of compound in combination with colistin (K. pneumoniae CQ1947; colistin 0.06 μg/mL, strain F): > 100 µg/mL
MIC of compound in combination with colistin (K. pneumoniae CQ1947; colistin 0.125 μg/mL, strain F): > 100 µg/mL
MIC of compound in combination with colistin (K. pneumoniae CQ1947; colistin 0.25 μg/mL, strain F): > 100 µg/mL
MIC of compound in combination with colistin (K. pneumoniae CQ1947; colistin 0.5 μg/mL, strain F): 3.1 µg/mL
MICA(A + B) (MIC of compound in combination with colistin) (K. pneumoniae CQ1947; [2]): 3.125 mg/L
MICB(A + B) (MIC of colistin in combination with compound) (K. pneumoniae CQ1947; [2]): 0.5 mg/L
Interpretation (of FICI) (K. pneumoniae CQ1947; compound + colistin): Indifferent (1.0 to 4.0 were indifferent)
FICI (K. pneumoniae CQ1947; [3]): 1.016
MIC of colistin in combination with the compound (K. pneumoniae CQ4921; Cpd conc. 0.4 μg/mL, strain C): > 0.5 µg/mL
MIC of colistin in combination with the compound (K. pneumoniae CQ4921; Cpd conc. 0.8 μg/mL, strain C): > 0.5 µg/mL
MIC of colistin in combination with the compound (K. pneumoniae CQ4921; Cpd conc. 3.125 μg/mL, strain C): 0.25 µg/mL
MIC of colistin in combination with the compound (K. pneumoniae CQ4921; Cpd conc. 6.25 μg/mL, strain C): 0.25 µg/mL
MIC of colistin in combination with the compound (K. pneumoniae CQ4921; Cpd conc. 12.5 μg/mL, strain C): 0.25 µg/mL
MIC of colistin in combination with the compound (K. pneumoniae CQ4921; Cpd conc. […], strain C): 0.5 µg/mL
MIC (K. pneumoniae CQ4921; agent alone, no adjuvant (polymyxin conc. 0), strain C, read-out: MIC): > 100 µg/mL
MIC (K. pneumoniae CQ4921; [1]): > 100 µg/mL
MIC of compound in combination with PMB (K. pneumoniae CQ4921; PMB 0.25 μg/mL, strain C): > 100 µg/mL
MIC of compound in combination with PMB (K. pneumoniae CQ4921; PMB 0.5 μg/mL, strain C): 1.6 µg/mL
MIC of compound in combination with colistin (K. pneumoniae CQ4921; colistin 0.06 μg/mL, strain C): > 100 µg/mL
MIC of compound in combination with colistin (K. pneumoniae CQ4921; colistin 0.125 μg/mL, strain C): > 100 µg/mL
MIC of compound in combination with colistin (K. pneumoniae CQ4921; colistin 0.25 μg/mL, strain C): 3.1 µg/mL
MIC of compound in combination with colistin (K. pneumoniae CQ4921; colistin 0.5 μg/mL, strain C): 1.6 µg/mL
MICA(A + B) (MIC of compound in combination with colistin) (K. pneumoniae CQ4921; [2]): 3.125 mg/L
MICB(A + B) (MIC of colistin in combination with compound) (K. pneumoniae CQ4921; [2]): 0.25 mg/L
Interpretation (of FICI) (K. pneumoniae CQ4921; compound + colistin): Additive (from 0.5 to 1.0 were additive)
FICI (K. pneumoniae CQ4921; [3]): 0.52
IC50 (HEK-293T cells; Homo sapiens, HEK-293T, Colistin 0.25 μg/mL): 69.4 ± 2.58 µM
IC50 (HEK-293T cells; Homo sapiens, HEK-293T, Colistin 0.5 μg/mL): 65.9 ± 3.75 µM
IC50 (HEK-293T cells; Homo sapiens, HEK-293T, No polymyxin): 65.8 ± 1.28 µM
IC50 (HEK-293T cells; Homo sapiens, HEK-293T, PMB 0.125 μg/mL): 64.6 ± 0.87 µM
IC50 (HEK-293T cells; Homo sapiens, HEK-293T, PMB 0.25 μg/mL): 65.32 ± 0.4 µM
IC50 (HEK-293T cells; Homo sapiens, HEK-293T, PMB 0.5 μg/mL): 67.7 ± 1.22 µM
IC50 (HEK-293T cells; Homo sapiens, HEK-293T, tested alone (no polymyxin adjuvant)): 20.8 µg/mL
IC50 (HEK-293T cells; No polymyxin): 65.8 µM
IC50 (Caco-2 cells; Homo sapiens, Caco-2, 72 h, Colistin 0.25 μg/mL): 54.7 ± 1.04 µM
IC50 (Caco-2 cells; Homo sapiens, Caco-2, 72 h, Colistin 0.5 μg/mL): 52.5 ± 2.28 µM
IC50 (Caco-2 cells; Homo sapiens, Caco-2, 72 h, No polymyxin): 54.2 ± 2.77 µM
IC50 (Caco-2 cells; Homo sapiens, Caco-2, 72 h, PMB 0.25 μg/mL): 50.5 ± 0.15 µM
IC50 (Caco-2 cells; Homo sapiens, Caco-2, 72 h, PMB 0.5 μg/mL): 52.2 ± 1.77 µM
IC50 (Caco-2 cells; Homo sapiens, Caco-2, 72 h, tested alone (no polymyxin adjuvant)): 17.2 µg/mL
IC50 (Caco-2 cells; No polymyxin, 72 h): 54.3 µM
MIC of colistin in combination with the compound (E. cloacae CQ1941; Cpd conc. 0.4 μg/mL, strain D): > 0.5 µg/mL
MIC of colistin in combination with the compound (E. cloacae CQ1941; Cpd conc. 0.8 μg/mL, strain D): 0.5 µg/mL
MIC of colistin in combination with the compound (E. cloacae CQ1941; Cpd conc. 3.125 μg/mL, strain D): 0.25 µg/mL
MIC of colistin in combination with the compound (E. cloacae CQ1941; Cpd conc. 6.25 μg/mL, strain D): 0.25 µg/mL
MIC of colistin in combination with the compound (E. cloacae CQ1941; Cpd conc. 12.5 μg/mL, strain D): 0.25 µg/mL
MIC of colistin in combination with the compound (E. cloacae CQ1941; Cpd conc. […], strain D): 0.25 µg/mL
MIC (E. cloacae CQ1941; agent alone, no adjuvant (polymyxin conc. 0), strain D, read-out: MIC): > 100 µg/mL
MIC (E. cloacae CQ1941; [1]): > 100 µg/mL
MIC of compound in combination with PMB (E. cloacae CQ1941; PMB 0.25 μg/mL, strain D): > 100 µg/mL
MIC of compound in combination with PMB (E. cloacae CQ1941; PMB 0.5 μg/mL, strain D): 1.6 µg/mL
MIC of compound in combination with colistin (E. cloacae CQ1941; colistin 0.06 μg/mL, strain D): > 100 µg/mL
MIC of compound in combination with colistin (E. cloacae CQ1941; colistin 0.125 μg/mL, strain D): > 100 µg/mL
MIC of compound in combination with colistin (E. cloacae CQ1941; colistin 0.25 μg/mL, strain D): 1.6 µg/mL
MIC of compound in combination with colistin (E. cloacae CQ1941; colistin 0.5 μg/mL, strain D): 0.8 µg/mL
MICB(A + B) (MIC of colistin in combination with compound) (E. cloacae CQ1941; [2]): 0.25 mg/L
Interpretation (of FICI) (E. cloacae CQ1941; compound + colistin): Additive (from 0.5 to 1.0 were additive)
FICI (E. cloacae CQ1941; [3]): 0.52
